Source: the NIST ThermoML archive (doi:10.1016/j.jct.2018.10.006)

Assay: molar heat capacity at constant pressure
Conditions: 101.33 kPa

O=P([O-])([O-])[O-].[Cs+].[Ni+2] [cesium nickel monophosphate]
Conditions	molar heat capacity at constant pressure [J/K/mol]
344.8 K, Crystal 2, DSC	162.96
345.8 K, Crystal 2, DSC	163.79
346.8 K, Crystal 2, DSC	163.79
347.8 K, Crystal 2, DSC	163.79
348.8 K, Crystal 2, DSC	164.63
349.8 K, Crystal 2, DSC	165.46
350 K, Crystal 2, Small (less than 1 g) adiabatic calorimetry	165.04
350.8 K, Crystal 2, DSC	165.46
351.8 K, Crystal 2, DSC	165.46
352.8 K, Crystal 2, DSC	166.29
353.8 K, Crystal 2, DSC	167.12
354.8 K, Crystal 2, DSC	167.12
355.8 K, Crystal 2, DSC	167.12
356.8 K, Crystal 2, DSC	167.95
357.8 K, Crystal 2, DSC	167.95
358.8 K, Crystal 2, DSC	168.78
359.8 K, Crystal 2, DSC	168.78
360 K, Crystal 2, Small (less than 1 g) adiabatic calorimetry	169.2
360.8 K, Crystal 2, DSC	169.61
361.8 K, Crystal 2, DSC	170.45
362.8 K, Crystal 2, DSC	170.45
363.8 K, Crystal 2, DSC	170.45
364.8 K, Crystal 2, DSC	171.28
365.8 K, Crystal 2, DSC	172.11
366.8 K, Crystal 2, DSC	172.11
367.8 K, Crystal 2, DSC	172.94
368.8 K, Crystal 2, DSC	172.94
369.8 K, Crystal 2, DSC	172.94
370 K, Crystal 2, Small (less than 1 g) adiabatic calorimetry	173.36
370.8 K, Crystal 2, DSC	173.77
371.8 K, Crystal 2, DSC	173.77
372.8 K, Crystal 2, DSC	174.6
373.8 K, Crystal 2, DSC	175.44
374.8 K, Crystal 2, DSC	177.1
376.3 K, Crystal 2, DSC	180.42
380 K, Crystal 2, Small (less than 1 g) adiabatic calorimetry	176.27
382.8 K, Crystal 1, DSC	178.26
382.8 K, Crystal 2, Small (less than 1 g) adiabatic calorimetry	176.68
387.8 K, Crystal 1, DSC	183.75
388.8 K, Crystal 1, DSC	179.59
389.8 K, Crystal 1, DSC	177.93
390 K, Crystal 1, DSC	177.1
390.8 K, Crystal 1, DSC	177.1
391.8 K, Crystal 1, DSC	177.1
392.8 K, Crystal 1, DSC	177.1
393.8 K, Crystal 1, DSC	177.1
394.8 K, Crystal 1, DSC	176.27
395.8 K, Crystal 1, DSC	177.1
396.8 K, Crystal 1, DSC	176.27
397.8 K, Crystal 1, DSC	176.27
398.8 K, Crystal 1, DSC	176.27
399.8 K, Crystal 1, DSC	176.27
400 K, Crystal 1, DSC	175.85
400.8 K, Crystal 1, DSC	175.44
402.8 K, Crystal 1, DSC	175.44
404.8 K, Crystal 1, DSC	174.6
407.1 K, Crystal 1, DSC	174.6
408.8 K, Crystal 1, DSC	174.6
410 K, Crystal 1, DSC	175.02
410.8 K, Crystal 1, DSC	174.6
412.8 K, Crystal 1, DSC	174.6
414.8 K, Crystal 1, DSC	174.6
416.8 K, Crystal 1, DSC	174.6
418.8 K, Crystal 1, DSC	174.6
420 K, Crystal 1, DSC	174.52
420.8 K, Crystal 1, DSC	174.6
422.8 K, Crystal 1, DSC	174.6
424.8 K, Crystal 1, DSC	174.6
426.8 K, Crystal 1, DSC	174.6
428.8 K, Crystal 1, DSC	174.6
430 K, Crystal 1, DSC	174.27
430.8 K, Crystal 1, DSC	174.6
432.8 K, Crystal 1, DSC	174.6
434.8 K, Crystal 1, DSC	174.6
436.8 K, Crystal 1, DSC	174.6
438.8 K, Crystal 1, DSC	174.6
440 K, Crystal 1, DSC	174.27
440.8 K, Crystal 1, DSC	173.77
442.8 K, Crystal 1, DSC	174.6
444.8 K, Crystal 1, DSC	174.6
446.8 K, Crystal 1, DSC	174.6
448.8 K, Crystal 1, DSC	173.77
450 K, Crystal 1, DSC	174.44
450.8 K, Crystal 1, DSC	173.77
452.8 K, Crystal 1, DSC	173.77
454.8 K, Crystal 1, DSC	174.6
456.8 K, Crystal 1, DSC	173.77
458.8 K, Crystal 1, DSC	174.6
460 K, Crystal 1, DSC	174.77
460.8 K, Crystal 1, DSC	174.6
462.8 K, Crystal 1, DSC	174.6
464.8 K, Crystal 1, DSC	174.6
466.8 K, Crystal 1, DSC	174.6
468.8 K, Crystal 1, DSC	175.44
470 K, Crystal 1, DSC	175.19
470.8 K, Crystal 1, DSC	175.44
472.8 K, Crystal 1, DSC	175.44
474.8 K, Crystal 1, DSC	175.44
476.8 K, Crystal 1, DSC	176.27
478.8 K, Crystal 1, DSC	176.27
480 K, Crystal 1, DSC	175.68
480.8 K, Crystal 1, DSC	176.27
482.8 K, Crystal 1, DSC	176.27
484.8 K, Crystal 1, DSC	176.27
486.8 K, Crystal 1, DSC	176.27
488.8 K, Crystal 1, DSC	176.27
490 K, Crystal 1, DSC	176.18
490.8 K, Crystal 1, DSC	177.1
492.8 K, Crystal 1, DSC	177.1
494.8 K, Crystal 1, DSC	177.1
496.8 K, Crystal 1, DSC	177.1
498.8 K, Crystal 1, DSC	177.1
500 K, Crystal 1, DSC	176.77
500.8 K, Crystal 1, DSC	177.1
502.8 K, Crystal 1, DSC	177.1
504.8 K, Crystal 1, DSC	177.1
506.8 K, Crystal 1, DSC	177.1
508.8 K, Crystal 1, DSC	177.1
510 K, Crystal 1, DSC	177.26
510.8 K, Crystal 1, DSC	177.1
512.8 K, Crystal 1, DSC	177.1
514.8 K, Crystal 1, DSC	177.1
516.8 K, Crystal 1, DSC	177.1
518.8 K, Crystal 1, DSC	177.1
520 K, Crystal 1, DSC	177.76
520.8 K, Crystal 1, DSC	177.93
522.8 K, Crystal 1, DSC	177.93
524.8 K, Crystal 1, DSC	177.93
526.8 K, Crystal 1, DSC	177.93
528.8 K, Crystal 1, DSC	177.93
530 K, Crystal 1, DSC	178.26
530.8 K, Crystal 1, DSC	177.93
532.8 K, Crystal 1, DSC	177.93
534.8 K, Crystal 1, DSC	177.93
536.8 K, Crystal 1, DSC	177.93
538.8 K, Crystal 1, DSC	178.76
540 K, Crystal 1, DSC	178.76
540.8 K, Crystal 1, DSC	178.76
542.8 K, Crystal 1, DSC	178.76
544.8 K, Crystal 1, DSC	178.76
546.8 K, Crystal 1, DSC	178.76
548.8 K, Crystal 1, DSC	178.76
550 K, Crystal 1, DSC	179.18
550.8 K, Crystal 1, DSC	178.76
552.8 K, Crystal 1, DSC	178.76
554.8 K, Crystal 1, DSC	179.59
556.8 K, Crystal 1, DSC	179.59
558.8 K, Crystal 1, DSC	179.59
560 K, Crystal 1, DSC	179.59
560.8 K, Crystal 1, DSC	179.59
562.8 K, Crystal 1, DSC	179.59
564.8 K, Crystal 1, DSC	179.59
566.8 K, Crystal 1, DSC	180.42
568.8 K, Crystal 1, DSC	180.42
570 K, Crystal 1, DSC	180.01
570.8 K, Crystal 1, DSC	180.42
572.8 K, Crystal 1, DSC	180.42
574.8 K, Crystal 1, DSC	180.42
576.8 K, Crystal 1, DSC	180.42
578.8 K, Crystal 1, DSC	180.42
580 K, Crystal 1, DSC	180.34
580.8 K, Crystal 1, DSC	180.42
582.8 K, Crystal 1, DSC	180.42
584.8 K, Crystal 1, DSC	180.42
586.8 K, Crystal 1, DSC	180.42
588.8 K, Crystal 1, DSC	180.42
590 K, Crystal 1, DSC	180.76
590.8 K, Crystal 1, DSC	181.26
592.8 K, Crystal 1, DSC	181.26
594.8 K, Crystal 1, DSC	181.26
596.8 K, Crystal 1, DSC	181.26
598.8 K, Crystal 1, DSC	181.26
600 K, Crystal 1, DSC	181.26
600.8 K, Crystal 1, DSC	181.26
602.8 K, Crystal 1, DSC	181.26
604.8 K, Crystal 1, DSC	181.26
606.8 K, Crystal 1, DSC	181.26
608.8 K, Crystal 1, DSC	182.09
610 K, Crystal 1, DSC	181.84
610.8 K, Crystal 1, DSC	182.09
612.8 K, Crystal 1, DSC	182.09
614.8 K, Crystal 1, DSC	182.09
616.8 K, Crystal 1, DSC	182.09
618.8 K, Crystal 1, DSC	182.09
620 K, Crystal 1, DSC	182.5
620.8 K, Crystal 1, DSC	182.09
622.8 K, Crystal 1, DSC	182.92
624.8 K, Crystal 1, DSC	182.92
626.8 K, Crystal 1, DSC	182.92
628.8 K, Crystal 1, DSC	182.92
630 K, Crystal 1, DSC	183.25
630.8 K, Crystal 1, DSC	182.92
632.8 K, Crystal 1, DSC	183.75
634.8 K, Crystal 1, DSC	183.75
636.8 K, Crystal 1, DSC	183.75
638.8 K, Crystal 1, DSC	184.58
640 K, Crystal 1, DSC	184.33
640.8 K, Crystal 1, DSC	184.58
642.8 K, Crystal 1, DSC	184.58
644.8 K, Crystal 1, DSC	184.58
646.8 K, Crystal 1, DSC	185.41
648.8 K, Crystal 1, DSC	185.41
650 K, Crystal 1, DSC	185.58
